Experimental data as given in the NIST ThermoML archive (doi:10.1016/j.jct.2018.01.024).
± gives the expanded uncertainty stated by the source.

Assay: mn = molality of the nth substance listed, in mol/kg
Conditions: Liquid

NC(N)=O [urea] + O
Conditions | mass density [kg/m3]
279.15 K, 101 kPa, Vibrating tube method, m1 = 0.1063 | 1001.79 ± 0.08
279.15 K, 101 kPa, Vibrating tube method, m1 = 0.141 | 1002.39 ± 0.08
279.15 K, 101 kPa, Vibrating tube method, m1 = 0.152 | 1002.57 ± 0.08
279.15 K, 101 kPa, Vibrating tube method, m1 = 0.1809 | 1003.07 ± 0.08
279.15 K, 101 kPa, Vibrating tube method, m1 = 0.2423 | 1004.12 ± 0.08
279.15 K, 101 kPa, Vibrating tube method, m1 = 0.4362 | 1007.39 ± 0.08
279.15 K, 101 kPa, Vibrating tube method, m1 = 0.5644 | 1009.51 ± 0.08
279.15 K, 101 kPa, Vibrating tube method, m1 = 1.008 | 1016.61 ± 0.09
279.15 K, 101 kPa, Vibrating tube method, m1 = 1.609 | 1025.68 ± 0.25
279.15 K, 101 kPa, Vibrating tube method, m1 = 2.505 | 1038.19 ± 0.24
280.15 K, 101 kPa, Vibrating tube method, m1 = 0.093 | 1001.51 ± 0.08
280.15 K, 101 kPa, Vibrating tube method, m1 = 0.1063 | 1001.74 ± 0.08
280.15 K, 101 kPa, Vibrating tube method, m1 = 0.141 | 1002.33 ± 0.08
280.15 K, 101 kPa, Vibrating tube method, m1 = 0.152 | 1002.52 ± 0.08
280.15 K, 101 kPa, Vibrating tube method, m1 = 0.1809 | 1003.02 ± 0.08
280.15 K, 101 kPa, Vibrating tube method, m1 = 0.2423 | 1004.06 ± 0.08
280.15 K, 101 kPa, Vibrating tube method, m1 = 0.4362 | 1007.31 ± 0.08
280.15 K, 101 kPa, Vibrating tube method, m1 = 0.5644 | 1009.42 ± 0.08
280.15 K, 101 kPa, Vibrating tube method, m1 = 1.008 | 1016.48 ± 0.09
280.15 K, 101 kPa, Vibrating tube method, m1 = 1.609 | 1025.5 ± 0.25
280.15 K, 101 kPa, Vibrating tube method, m1 = 2.505 | 1037.95 ± 0.22
281.15 K, 101 kPa, Vibrating tube method, m1 = 0.093 | 1001.45 ± 0.08
281.15 K, 101 kPa, Vibrating tube method, m1 = 0.1063 | 1001.67 ± 0.08
281.15 K, 101 kPa, Vibrating tube method, m1 = 0.141 | 1002.26 ± 0.08
281.15 K, 101 kPa, Vibrating tube method, m1 = 0.152 | 1002.46 ± 0.08
281.15 K, 101 kPa, Vibrating tube method, m1 = 0.1809 | 1002.95 ± 0.08
281.15 K, 101 kPa, Vibrating tube method, m1 = 0.2423 | 1003.99 ± 0.08
281.15 K, 101 kPa, Vibrating tube method, m1 = 0.4362 | 1007.21 ± 0.08
281.15 K, 101 kPa, Vibrating tube method, m1 = 0.5644 | 1009.31 ± 0.08
281.15 K, 101 kPa, Vibrating tube method, m1 = 1.008 | 1016.33 ± 0.09
281.15 K, 101 kPa, Vibrating tube method, m1 = 1.609 | 1025.3 ± 0.25
281.15 K, 101 kPa, Vibrating tube method, m1 = 2.505 | 1037.71 ± 0.24
282.15 K, 101 kPa, Vibrating tube method, m1 = 0.093 | 1001.37 ± 0.08
282.15 K, 101 kPa, Vibrating tube method, m1 = 0.1063 | 1001.6 ± 0.08
282.15 K, 101 kPa, Vibrating tube method, m1 = 0.141 | 1002.18 ± 0.08
282.15 K, 101 kPa, Vibrating tube method, m1 = 0.152 | 1002.37 ± 0.08
282.15 K, 101 kPa, Vibrating tube method, m1 = 0.1809 | 1002.86 ± 0.08
282.15 K, 101 kPa, Vibrating tube method, m1 = 0.2423 | 1003.89 ± 0.08
282.15 K, 101 kPa, Vibrating tube method, m1 = 0.4362 | 1007.1 ± 0.08
282.15 K, 101 kPa, Vibrating tube method, m1 = 0.5644 | 1009.18 ± 0.08
282.15 K, 101 kPa, Vibrating tube method, m1 = 1.008 | 1016.17 ± 0.09
282.15 K, 101 kPa, Vibrating tube method, m1 = 1.609 | 1025.12 ± 0.24
282.15 K, 101 kPa, Vibrating tube method, m1 = 2.505 | 1037.45 ± 0.24
283.15 K, 101 kPa, Vibrating tube method, m1 = 0.093 | 1001.28 ± 0.08
283.15 K, 101 kPa, Vibrating tube method, m1 = 0.1063 | 1001.51 ± 0.08
283.15 K, 101 kPa, Vibrating tube method, m1 = 0.141 | 1002.09 ± 0.08
283.15 K, 101 kPa, Vibrating tube method, m1 = 0.152 | 1002.27 ± 0.08
283.15 K, 101 kPa, Vibrating tube method, m1 = 0.1809 | 1002.76 ± 0.08
283.15 K, 101 kPa, Vibrating tube method, m1 = 0.2423 | 1003.78 ± 0.08
283.15 K, 101 kPa, Vibrating tube method, m1 = 0.4362 | 1006.97 ± 0.08
283.15 K, 101 kPa, Vibrating tube method, m1 = 0.5644 | 1009.04 ± 0.08
283.15 K, 101 kPa, Vibrating tube method, m1 = 1.008 | 1016 ± 0.09
283.15 K, 101 kPa, Vibrating tube method, m1 = 1.609 | 1024.89 ± 0.25
283.15 K, 101 kPa, Vibrating tube method, m1 = 2.505 | 1037.2 ± 0.24
288.15 K, 101 kPa, Vibrating tube method, m1 = 0.093 | 1000.63 ± 0.09
288.15 K, 101 kPa, Vibrating tube method, m1 = 0.1063 | 1000.85 ± 0.08
288.15 K, 101 kPa, Vibrating tube method, m1 = 0.141 | 1001.42 ± 0.08
288.15 K, 101 kPa, Vibrating tube method, m1 = 0.152 | 1001.6 ± 0.08
288.15 K, 101 kPa, Vibrating tube method, m1 = 0.1809 | 1002.08 ± 0.08
288.15 K, 101 kPa, Vibrating tube method, m1 = 0.2423 | 1003.08 ± 0.08
288.15 K, 101 kPa, Vibrating tube method, m1 = 0.4362 | 1006.2 ± 0.08
288.15 K, 101 kPa, Vibrating tube method, m1 = 0.5644 | 1008.22 ± 0.08
288.15 K, 101 kPa, Vibrating tube method, m1 = 1.008 | 1015 ± 0.09
288.15 K, 101 kPa, Vibrating tube method, m1 = 1.609 | 1023.7 ± 0.24
288.15 K, 101 kPa, Vibrating tube method, m1 = 2.505 | 1035.73 ± 0.23
288.15 K, 101 kPa, Vibrating tube method, m1 = 3.376 | 1046.46 ± 0.21
288.15 K, 101 kPa, Vibrating tube method, m1 = 4.33 | 1057.3 ± 0.2
288.15 K, 101 kPa, Vibrating tube method, m1 = 5.39 | 1068.26 ± 0.93
288.15 K, 101 kPa, Vibrating tube method, m1 = 8 | 1091.62 ± 0.85
288.15 K, 101 kPa, Vibrating tube method, m1 = 9.9 | 1105.86 ± 0.69
288.15 K, 101 kPa, Vibrating tube method, m1 = 12.8 | 1124.47 ± 0.65
288.15 K, 10000 kPa, Constant-volume piezometry, m1 = 0.1809 | 1006.62 ± 0.18
288.15 K, 10000 kPa, Constant-volume piezometry, m1 = 0.4362 | 1010.71 ± 0.19
288.15 K, 10000 kPa, Constant-volume piezometry, m1 = 0.5644 | 1012.73 ± 0.19
288.15 K, 10000 kPa, Constant-volume piezometry, m1 = 1.609 | 1028.1 ± 0.25
288.15 K, 10000 kPa, Constant-volume piezometry, m1 = 2.505 | 1040.04 ± 0.26
288.15 K, 10000 kPa, Constant-volume piezometry, m1 = 3.376 | 1050.69 ± 0.26
288.15 K, 10000 kPa, Constant-volume piezometry, m1 = 5.39 | 1072.37 ± 1.1
288.15 K, 10000 kPa, Constant-volume piezometry, m1 = 8 | 1095.6 ± 1.1
288.15 K, 10000 kPa, Constant-volume piezometry, m1 = 10.99 | 1117.15 ± 1.1
288.15 K, 10000 kPa, Constant-volume piezometry, m1 = 12.8 | 1128.28 ± 1.1
288.15 K, 25000 kPa, Constant-volume piezometry, m1 = 0.1809 | 1013.33 ± 0.27
288.15 K, 25000 kPa, Constant-volume piezometry, m1 = 0.4362 | 1017.37 ± 0.27
288.15 K, 25000 kPa, Constant-volume piezometry, m1 = 0.5644 | 1019.38 ± 0.27
288.15 K, 25000 kPa, Constant-volume piezometry, m1 = 1.609 | 1034.57 ± 0.33
288.15 K, 25000 kPa, Constant-volume piezometry, m1 = 2.505 | 1046.37 ± 0.33
288.15 K, 25000 kPa, Constant-volume piezometry, m1 = 3.376 | 1056.91 ± 0.34
288.15 K, 25000 kPa, Constant-volume piezometry, m1 = 5.39 | 1078.39 ± 1.1
288.15 K, 25000 kPa, Constant-volume piezometry, m1 = 8 | 1101.46 ± 1.1
288.15 K, 25000 kPa, Constant-volume piezometry, m1 = 10.99 | 1122.84 ± 1.2
288.15 K, 25000 kPa, Constant-volume piezometry, m1 = 12.8 | 1133.9 ± 1.2
288.15 K, 50000 kPa, Constant-volume piezometry, m1 = 0.1809 | 1024.08 ± 0.47
288.15 K, 50000 kPa, Constant-volume piezometry, m1 = 0.4362 | 1028.05 ± 0.47
288.15 K, 50000 kPa, Constant-volume piezometry, m1 = 0.5644 | 1029.99 ± 0.47
288.15 K, 50000 kPa, Constant-volume piezometry, m1 = 1.609 | 1044.87 ± 0.51
288.15 K, 50000 kPa, Constant-volume piezometry, m1 = 2.505 | 1056.4 ± 0.51
288.15 K, 50000 kPa, Constant-volume piezometry, m1 = 3.376 | 1066.74 ± 0.52
288.15 K, 50000 kPa, Constant-volume piezometry, m1 = 5.39 | 1087.86 ± 1.2
288.15 K, 50000 kPa, Constant-volume piezometry, m1 = 8 | 1110.67 ± 1.2
288.15 K, 50000 kPa, Constant-volume piezometry, m1 = 10.99 | 1131.87 ± 1.2
288.15 K, 50000 kPa, Constant-volume piezometry, m1 = 12.8 | 1142.81 ± 1.3
288.15 K, 75000 kPa, Constant-volume piezometry, m1 = 0.1809 | 1034.29 ± 0.67
288.15 K, 75000 kPa, Constant-volume piezometry, m1 = 0.4362 | 1038.17 ± 0.67
288.15 K, 75000 kPa, Constant-volume piezometry, m1 = 0.5644 | 1040.07 ± 0.67
288.15 K, 75000 kPa, Constant-volume piezometry, m1 = 1.609 | 1054.62 ± 0.71
288.15 K, 75000 kPa, Constant-volume piezometry, m1 = 2.505 | 1065.93 ± 0.71
288.15 K, 75000 kPa, Constant-volume piezometry, m1 = 3.376 | 1076.06 ± 0.72
288.15 K, 75000 kPa, Constant-volume piezometry, m1 = 5.39 | 1096.81 ± 1.3
288.15 K, 75000 kPa, Constant-volume piezometry, m1 = 8 | 1119.36 ± 1.3
288.15 K, 75000 kPa, Constant-volume piezometry, m1 = 10.99 | 1140.4 ± 1.4
288.15 K, 75000 kPa, Constant-volume piezometry, m1 = 12.8 | 1151.22 ± 1.4
288.15 K, 100000 kPa, Constant-volume piezometry, m1 = 0.1809 | 1043.99 ± 0.88
288.15 K, 100000 kPa, Constant-volume piezometry, m1 = 0.4362 | 1047.8 ± 0.88
